Laboratory results from patent publication US20260078119A1, “DEGRADER COMPOUNDS AND USES THEREOF” (Bristol-Myers Squibb Company, priority 2024, published 2026).

Legend:
CAL-51 cells = experiment: CAL-51 Cell Proliferation Assay; assay type: cell-based; settings: for EC50: Homo sapiens, 120 hours incubation, 10-point dose response, 4-fold dilutions starting at 10 μM, Cell-Titer-Glo, read-out: CAL-51 Prolif EC50; for CAL-51 Prolif Ymin: minimal percent of DMSO control observed in the concentrations tested (Ymin-obs), 120 hours
Outline: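 Cells seeded at 350/well in RPMI complete medium onto 10-point, 4-fold compound dilutions from 10 μM (0.1% DMSO), in duplicate, and grown 120 h at 37 °C. CellTiter-Glo luminescence, blank-subtracted and normalised to DMSO, was fitted with a four-parameter logistic to give EC50; Ymin-obs is the lowest observed percent of DMSO control.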

FAK = target: T1, FAK (Homo sapiens, UniProt Q05397); experiment: FAK-HiBiT Degradation Assay; assay type: cell-based; settings: for DC50: JHH-4-FAK-HiBiT clone d01 cells, two hours incubation, 10-point dose response, 3-fold dilution starting at 1 μM, Nano-Glo HiBiT luminescence, read-out: FAK HiBiT EC50; for FAK HiBiT Ymin: lower limit of the four parameter fit (value A), Ymax derived using DMSO control, JHH-4-FAK-HiBiT cells, two hours
T1 construct: homozygous knock-in of a HiBiT tag (Promega Corporation, Madison, WI) to the C-terminus of the FAK gene in its natural genomic locus; endogenous in cells; host or cells: JHH-4-FAK-HiBiT clone d01 (CRISPR-Cas9 knock-in at the endogenous locus)
Outline: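 JHH-4 cells with homozygous CRISPR knock-in of C-terminal HiBiT on endogenous FAK, treated 2 h at 37 °C with compounds in 10-point 3-fold series from 1 μM. HiBiT lytic luminescence read; EC50 from four-parameter logistic fit, Ymax set by DMSO control, Ymin as lower fit limit.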

T1 sequence (Q05397 whole entry): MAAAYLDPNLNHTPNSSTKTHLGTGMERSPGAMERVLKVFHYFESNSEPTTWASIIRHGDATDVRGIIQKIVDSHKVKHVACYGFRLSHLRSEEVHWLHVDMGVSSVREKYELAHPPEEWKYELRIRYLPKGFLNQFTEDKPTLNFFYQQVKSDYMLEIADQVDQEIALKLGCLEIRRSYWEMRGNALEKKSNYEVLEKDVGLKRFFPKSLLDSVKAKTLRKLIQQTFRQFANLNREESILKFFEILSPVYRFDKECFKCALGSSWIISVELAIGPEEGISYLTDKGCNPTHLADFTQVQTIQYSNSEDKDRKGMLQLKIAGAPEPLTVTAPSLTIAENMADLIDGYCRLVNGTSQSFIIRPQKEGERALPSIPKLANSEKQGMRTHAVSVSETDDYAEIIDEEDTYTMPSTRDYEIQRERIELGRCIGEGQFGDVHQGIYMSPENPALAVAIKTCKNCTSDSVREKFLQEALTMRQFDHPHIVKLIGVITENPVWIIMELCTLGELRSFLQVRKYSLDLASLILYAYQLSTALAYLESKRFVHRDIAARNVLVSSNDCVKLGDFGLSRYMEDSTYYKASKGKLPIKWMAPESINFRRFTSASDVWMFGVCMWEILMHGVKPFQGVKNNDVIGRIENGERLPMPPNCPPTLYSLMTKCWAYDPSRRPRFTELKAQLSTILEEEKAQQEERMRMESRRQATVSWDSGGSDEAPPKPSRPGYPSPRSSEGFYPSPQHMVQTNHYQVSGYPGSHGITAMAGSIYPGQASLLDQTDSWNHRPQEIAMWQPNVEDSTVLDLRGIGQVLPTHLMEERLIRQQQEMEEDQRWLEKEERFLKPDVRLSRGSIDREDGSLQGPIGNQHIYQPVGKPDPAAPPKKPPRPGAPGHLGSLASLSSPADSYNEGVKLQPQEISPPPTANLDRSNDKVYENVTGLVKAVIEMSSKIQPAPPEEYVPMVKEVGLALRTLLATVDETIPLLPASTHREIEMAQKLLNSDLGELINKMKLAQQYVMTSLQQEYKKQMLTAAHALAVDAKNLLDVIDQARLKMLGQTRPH

Row | SMILES | EC50 (CAL-51 cells) | CAL-51 Prolif Ymin (CAL-51 cells) | DC50 (FAK) | FAK HiBiT Ymin (FAK)
1 | CC(C)(O)c1ccc(-c2cc(N3CCC3)nc3c2cnn3Cc2ccc3c(c2)CN(C2CCC(=O)NC2=O)C3=O)c(Cl)c1 (centres unmarked) [Example 105, 3-(5-{[6-(azetidin-1-yl)-4-[2-chloro-4-(2-hydroxypropan-2-yl)phenyl]-1H-pyrazolo[3,4-b]pyridin-1-yl]methyl}-1-oxo-2,3-dihydro-1H-isoindol-2-yl)piperidine-2,6-dione] | 0.00491 µM | 55.87 | 0.0357 µM | 27.68
2 | CN(c1cc(-c2ncc(C(F)(F)F)cc2Cl)c2cnn(Cc3ccc4c(c3)CN([C@H]3CCC(=O)NC3=O)C4=O)c2n1)[C@H]1C[C@](C)(O)C1 [Example 107, (3S)-3-[5-({4-[3-chloro-5-(trifluoromethyl)pyridin-2-yl]-6-{methyl[(1s,3r)-3-hydroxy-3-methylcyclobutyl]amino}-1H-pyrazolo[3,4-b]pyridin-1-yl}methyl)-1-oxo-2,3-dihydro-1H-isoindol-2-yl]piperidine-2,6-dione] | 0.00844 µM | 44.59 | 0.0383 µM | 18.14
3 | Cc1cc(C(F)(F)F)cnc1-c1cc(N2CC[C@H](O)C2)nc2c1cnn2Cc1ccc2c(c1)CN([C@H]1CCC(=O)NC1=O)C2=O [Example 110, (3S)-3-[5-({6-[(3S)-3-hydroxypyrrolidin-1-yl]-4-[3-methyl-5-(trifluoromethyl)pyridin-2-yl]-1H-pyrazolo[3,4-b]pyridin-1-yl}methyl)-1-oxo-2,3-dihydro-1H-isoindol-2-yl]piperidine-2,6-dione] | 0.186 µM | 10.20 | 0.0453 µM | 14.00
4 | CCOc1ccc(Cl)c(-c2cc(N3CC(F)C3)nc3c2cnn3Cc2ccc3c(c2)CN([C@H]2CCC(=O)NC2=O)C3=O)n1 [Example 111, (3S)-3-(5-{[4-(3-chloro-6-ethoxypyridin-2-yl)-6-(3-fluoroazetidin-1-yl)-1H-pyrazolo[3,4-b]pyridin-1-yl]methyl}-1-oxo-2,3-dihydro-1H-isoindol-2-yl)piperidine-2,6-dione] | 0.551 µM | 60.03 | 0.0458 µM | 73.08
5 | O=C1CC[C@H](N2Cc3cc(Cn4ncc5c(-c6ncc(C(F)(F)F)cc6Cl)cc(N6CC(O)C6)nc54)ccc3C2=O)C(=O)N1 [Example 113, (3S)-3-[5-({4-[3-chloro-5-(trifluoromethyl)pyridin-2-yl]-6-(3-hydroxyazetidin-1-yl)-1H-pyrazolo[3,4-b]pyridin-1-yl}methyl)-1-oxo-2,3-dihydro-1H-isoindol-2-yl]piperidine-2,6-dione] | 0.00928 µM | 38.05 | 0.0518 µM | 21.00
6 | O=C1CCC(N2Cc3cc(Cn4ncc5c(-c6ncc(F)cc6Cl)cc(N6CC[C@@H](O)C6)nc54)ccc3C2=O)C(=O)N1 (stereo partly drawn) [Example 114, 3-(5-{[4-(3-chloro-5-fluoropyridin-2-yl)-6-[(3R)-3-hydroxypyrrolidin-1-yl]-1H-pyrazolo[3,4-b]pyridin-1-yl]methyl}-1-oxo-2,3-dihydro-1H-isoindol-2-yl)piperidine-2,6-dione] | 0.035 µM | 40.82 | 0.0557 µM | 14.15
7 | C[C@]1(O)CCN(c2cc(-c3ccc(C#N)cc3F)c3cnn(Cc4ccc5c(c4)CN(C4CCC(=O)NC4=O)C5=O)c3n2)C1 (stereo partly drawn) [Example 115, 4-(1-{[2-(2,6-dioxopiperidin-3-yl)-1-oxo-2,3-dihydro-1H-isoindol-5-yl]methyl}-6-[(3S)-3-hydroxy-3-methylpyrrolidin-1-yl]-1H-pyrazolo[3,4-b]pyridin-4-yl)-3-fluorobenzonitrile] | 0.118 µM | 59.97 | 0.0653 µM | 53.22
8 | CC(C)(O)c1cnc(-c2cc(N3CC(F)C3)nc3c2cnn3Cc2ccc3c(c2)CN([C@H]2CCC(=O)NC2=O)C3=O)c(Cl)c1 [Example 119, (3S)-3-[5-({4-[3-chloro-5-(2-hydroxypropan-2-yl)pyridin-2-yl]-6-(3-fluoroazetidin-1-yl)-1H-pyrazolo[3,4-b]pyridin-1-yl}methyl)-1-oxo-2,3-dihydro-1H-isoindol-2-yl]piperidine-2,6-dione] | 0.027 µM | 59.05 | 0.0849 µM | 40.36
9 | CN(c1cc(-c2ncc(C(F)(F)F)cc2Cl)c2cnn(Cc3ccc4c(c3)CN([C@H]3CCC(=O)NC3=O)C4=O)c2n1)[C@H]1C[C@@H](O)C1 [Example 120, (3R)-3-[5-({4-[3-chloro-5-(trifluoromethyl)pyridin-2-yl]-6-{methyl[(1s,3s)-3-hydroxycyclobutyl]amino}-1H-pyrazolo[3,4-b]pyridin-1-yl}methyl)-1-oxo-2,3-dihydro-1H-isoindol-2-yl]piperidine-2,6-dione] | 0.00303 µM | 28.57 | 0.0871 µM | 12.66
10 | N#Cc1cnc(-c2cc(N3CC[C@H](O)C3)nc3c2cnn3Cc2ccc3c(c2)CN([C@H]2CCC(=O)NC2=O)C3=O)c(F)c1 [Example 121, 6-[1-({2-[(3S)-2,6-dioxopiperidin-3-yl]-1-oxo-2,3-dihydro-1H-isoindol-5-yl}methyl)-6-[(3S)-3-hydroxypyrrolidin-1-yl]-1H-pyrazolo[3,4-b]pyridin-4-yl]-5-fluoropyridine-3-carbonitrile] | 1.36 µM | 75.47 | 0.0954 µM | 40.50
11 | O=C1CC[C@H](N2Cc3cc(Cn4ncc5c(-c6ncc(F)cc6F)cc(N6CC[C@H](O)C6)nc54)ccc3C2=O)C(=O)N1 [Example 123, (3S)-3-(5-{[4-(3,5-difluoropyridin-2-yl)-6-[(3S)-3-hydroxypyrrolidin-1-yl]-1H-pyrazolo[3,4-b]pyridin-1-yl]methyl}-1-oxo-2,3-dihydro-1H-isoindol-2-yl)piperidine-2,6-dione] | 0.0283 µM | 78.23 | 0.109 µM | 45.54
12 | Cc1cc(F)cnc1-c1cc(N2CC[C@H](O)C2)nc2c1cnn2Cc1ccc2c(c1)CN([C@H]1CCC(=O)NC1=O)C2=O [Example 125, (3S)-3-(5-{[4-(5-fluoro-3-methylpyridin-2-yl)-6-[(3S)-3-hydroxypyrrolidin-1-yl]-1H-pyrazolo[3,4-b]pyridin-1-yl]methyl}-1-oxo-2,3-dihydro-1H-isoindol-2-yl)piperidine-2,6-dione] | 0.262 µM | 34.48 | 0.149 µM | 29.00
13 | O=C1CCC(N2Cc3cc(Cn4ncc5c(-c6ncc(C(F)(F)F)cc6Cl)cc(NC6COC6)nc54)ccc3C2=O)C(=O)N1 (centres unmarked) [Example 126, 3-[5-({4-[3-chloro-5-(trifluoromethyl)pyridin-2-yl]-6-[(oxetan-3-yl)amino]-1H-pyrazolo[3,4-b]pyridin-1-yl}methyl)-1-oxo-2,3-dihydro-1H-isoindol-2-yl]piperidine-2,6-dione] | 0.00047 µM | 91.32 | 0.169 µM | 89.33
14 | CN1CCC(Nc2cc(-c3ncc(C(F)(F)F)cc3Cl)c3cnn(Cc4ccc5c(c4)CN(C4CCC(=O)NC4=O)C5=O)c3n2)C1 (centres unmarked) [Example 128, 3-[5-({4-[3-chloro-5-(trifluoromethyl)pyridin-2-yl]-6-[(1-methylpyrrolidin-3-yl)amino]-1H-pyrazolo[3,4-b]pyridin-1-yl}methyl)-1-oxo-2,3-dihydro-1H-isoindol-2-yl]piperidine-2,6-dione] | 0.191 µM | 83.49 | 0.292 µM | 58.00
15 | O=C1CCC(N2Cc3cc(Cn4ncc5c(-c6nnccc6C(F)(F)F)cc(N6CC(F)C6)nc54)ccc3C2=O)C(=O)N1 (centres unmarked) [Example 129, 3-(5-{[6-(3-fluoroazetidin-1-yl)-4-[4-(trifluoromethyl)pyridazin-3-yl]-1H-pyrazolo[3,4-b]pyridin-1-yl]methyl}-1-oxo-2,3-dihydro-1H-isoindol-2-yl)piperidine-2,6-dione] | 0.499 µM | 92.49 | ≥ 1 µM | 95.34
16 | COc1cc(F)cnc1-c1cc(N2CC(F)C2)nc2c1cnn2Cc1ccc2c(c1)CN(C1CCC(=O)NC1=O)C2=O (centres unmarked) [Example 130, 3-(5-{[4-(5-fluoro-3-methoxypyridin-2-yl)-6-(3-fluoroazetidin-1-yl)-1H-pyrazolo[3,4-b]pyridin-1-yl]methyl}-1-oxo-2,3-dihydro-1H-isoindol-2-yl)piperidine-2,6-dione] | 3.9 µM | 76.29 | ≥ 1 µM | 84.84
17 | O=C1CC[C@H](N2Cc3cc(Cn4ncc5c(-c6ncc(C(F)(F)F)cc6Cl)cc(N6CCOCC6)nc54)ccc3C2=O)C(=O)N1 [Example 131, (3S)-3-[5-({4-[3-chloro-5-(trifluoromethyl)pyridin-2-yl]-6-(morpholin-4-yl)-1H-pyrazolo[3,4-b]pyridin-1-yl}methyl)-1-oxo-2,3-dihydro-1H-isoindol-2-yl]piperidine-2,6-dione] | 0.0031 µM | 59.06 | ≥ 1 µM | 92.07
